Assay results as given in paper PMC6385203, “Mutations in the palm domain disrupt modulation of acid-sensing ion channel 1a currents by neuropeptides” (Scientific Reports, 2019).
Peptide text beside a SMILES is read from it.

Biological target: T1, WT ASIC1a (Homo sapiens, UniProt P78348)
T1 construct: expressed in transfected cells; host or cells: Xenopus laevis oocytes injected with cRNA
T1 sequence (P78348 1-528): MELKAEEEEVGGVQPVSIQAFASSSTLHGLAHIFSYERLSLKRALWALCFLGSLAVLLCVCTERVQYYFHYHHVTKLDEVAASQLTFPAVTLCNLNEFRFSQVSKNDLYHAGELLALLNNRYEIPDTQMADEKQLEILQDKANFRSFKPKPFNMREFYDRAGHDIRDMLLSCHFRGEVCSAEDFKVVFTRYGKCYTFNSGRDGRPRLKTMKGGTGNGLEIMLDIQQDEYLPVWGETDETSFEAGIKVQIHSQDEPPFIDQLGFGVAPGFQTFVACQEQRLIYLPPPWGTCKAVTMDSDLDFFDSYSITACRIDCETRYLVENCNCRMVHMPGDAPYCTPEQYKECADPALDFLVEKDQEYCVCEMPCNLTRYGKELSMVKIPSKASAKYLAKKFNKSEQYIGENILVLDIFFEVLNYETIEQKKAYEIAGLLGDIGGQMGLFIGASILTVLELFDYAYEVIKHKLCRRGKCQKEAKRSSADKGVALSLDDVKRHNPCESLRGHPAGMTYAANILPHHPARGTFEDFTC
Experiment: Isust/Ipeak, TEVC in Xenopus oocytes, WT
Assay type: cell-based
Conditions: FRRFa in pH7.4 conditioning and pH5 solution, mean ± SEM, n = 7–12, read-out: EC50 for induction of sustained current (Isust/Ipeak)
Method: ASIC1a function was measured by two-electrode voltage-clamp after recombinant expression in Xenopus oocytes. The channels were activated by a pH5 stimulation solution from a conditioning solution of pH7.4. […] We measured the rate of FRRFa unbinding, as the disappearance of the sustained current after a 50-s incubation with 50 μM FRRFa, as 0.025 ± 0.005 s^−1 (n = 8, Fig. 2b). […] To determine the kinetics of FRRFa association on ASIC1a, we pre-applied the peptide at a concentration of 50 μM for different time periods in the conditioning solution and measured the sustained current fraction.
Human ASIC1a[43] had been subcloned into a vector for transcription that contained 5′- and 3′-untranslated regions of Xenopus β-globin mRNA[44]. Point mutations were introduced using QuikChange (Agilent, Basel, Switzerland). Mutations were verified by sequencing (Synergene Biotech, Zurich, Switzerland). Expression in Xenopus laevis oocytes was carried out as described previously. […]
Electrophysiological measurements were performed 1–2 days after cRNA injection. Ion currents were recorded using two-electrode voltage-clamp at a holding potential of −60 mV with a Dagan TEV-200 amplifier (Minneapolis, MN). […] The amplitude of the sustained current was measured in the last two seconds of the pH5 perfusion. […]

Q: How did the EC50 turn out when `N=C(N)NCCC[C@H](NC(=O)[C@H](CCCNC(=N)N)NC(=O)[C@@H](N)Cc1ccccc1)C(=O)N[C@@H](Cc1ccccc1)C(N)=O` [FRRFa, Phe-Arg-Arg-Phe-amide] (H-FRRF-NH2) was run?
A: 37 ± 15 µM
